Experimental data taken from ChEMBL document CHEMBL5523679, “Discovery of 1,2,3-triazole incorporated indole-piperazines as potent antitubercular agents: Design, synthesis, in vitro biological evaluation, molecular docking and ADME studies” (Bioorg Med Chem, 2024).

How the values were obtained:
Type in all cases: functional
[1] = system: Pseudomonas aeruginosa; experiment: Antibacterial activity against Pseudomonas aeruginosa assessed as inhibition zone at 75 ug/ml by diffusion method; details: read-out: IZ
[2] = system: Pseudomonas aeruginosa; experiment: Antibacterial activity against Pseudomonas aeruginosa assessed as inhibition zone at 50 ug/ml by diffusion method; details: read-out: IZ
[3] = system: Staphylococcus aureus; experiment: Antibacterial activity against Staphylococcus aureus assessed as inhibition zone at 25 ug/ml by diffusion method; details: read-out: IZ
[4] = system: Escherichia coli; experiment: Antibacterial activity against Escherichia coli assessed as inhibition zone at 75 ug/ml by diffusion method; details: read-out: IZ
[5] = system: Escherichia coli; experiment: Antibacterial activity against Escherichia coli assessed as inhibition zone at 50 ug/ml by diffusion method; details: read-out: IZ
[6] = system: Staphylococcus aureus; experiment: Antibacterial activity against Staphylococcus aureus assessed as inhibition zone at 75 ug/ml by diffusion method; details: read-out: IZ
[7] = system: Mycobacterium tuberculosis; experiment: Antimycobacterial activity against Mycobacterium tuberculosis H37Rv assessed as bacterial growth inhibition by microplate Alamar blue assay
[8] = system: Staphylococcus aureus; experiment: Antibacterial activity against Staphylococcus aureus assessed as inhibition zone at 50 ug/ml by diffusion method; details: read-out: IZ
[9] = system: Escherichia coli; experiment: Antibacterial activity against Escherichia coli assessed as inhibition zone at 25 ug/ml by diffusion method; details: read-out: IZ
[10] = system: Pseudomonas aeruginosa; experiment: Antibacterial activity against Pseudomonas aeruginosa assessed as inhibition zone at 25 ug/ml by diffusion method; details: read-out: IZ

Row | Compound | zone of inhibition at 75 µg/mL [1] [mm] | zone of inhibition at 50 µg/mL [2] [mm] | zone of inhibition at 25 µg/mL [3] [mm] | zone of inhibition at 75 µg/mL [4] [mm] | zone of inhibition at 50 µg/mL [5] [mm] | zone of inhibition at 75 µg/mL [6] [mm] | MIC [7] [µM] | zone of inhibition at 50 µg/mL [8] [mm] | zone of inhibition at 25 µg/mL [9] [mm] | zone of inhibition at 25 µg/mL [10] [mm]
1 | Cc1ccc(C(=O)N2CCN(C(=O)CCc3c[nH]c4ccccc34)CC2)cc1 | 15 | 10 | 10 | 15 | 13 | 15 | 66.6 | 13 |  | 
2 | O=C(CCc1cn(Cc2ccc(F)cc2)c2ccccc12)N1CCN(S(=O)(=O)c2ccc(Cl)cc2)CC1 | 17 | 13 | 15 | 18 | 15 | 23 | 23.1 | 18 |  | 
3 | O=C(Cc1cn(Cc2ccc(F)cc2)c2ccccc12)N1CCN(C(=O)c2ccc(Cl)cc2)CC1 | 13 | 10 | 13 | 15 | 13 | 23 | 25.5 | 18 |  | 
4 | O=C(CCc1cn(Cc2cn(Cc3ccc(F)cc3)nn2)c2ccccc12)N1CCN(S(=O)(=O)c2ccccc2C(F)(F)F)CC1 | 12 | 10 | 10 | 20 | 22 | 20 | 38.2 | 12 | 15 | 
5 | O=C(Cc1cn(Cc2ccc(F)cc2)c2ccccc12)N1CCN(C(=O)c2ccccc2)CC1 | 12 | 10 | 13 | 12 | 10 | 23 | > 120 | 17 |  | 
6 | O=C(Cc1c[nH]c2ccccc12)N1CCN(C(=O)c2ccc(Cl)cc2)CC1 | 15 | 10 | 13 | 12 | 10 | 20 | 65.5 | 15 |  | 
7 | COc1ccc(S(=O)(=O)N2CCN(C(=O)CCc3cn(Cc4cn(Cc5ccc(F)cc5)nn4)c4ccccc34)CC2)cc1 | 13 | 10 | 10 | 18 | 15 | 18 | 20.3 | 15 |  | 
8 | O=C(CCc1cn(Cc2cn(Cc3ccc(F)cc3)nn2)c2ccccc12)N1CCN(S(=O)(=O)c2ccc([N+](=O)[O-])cc2)CC1 | 12 | 10 | 6 | 20 | 18 | 20 | 39.6 | 12 | 15 | 
9 | O=C(Cc1cn(Cc2ccc(F)cc2)c2ccccc12)N1CCN(S(=O)(=O)c2ccc(F)cc2)CC1 | 18 |  | 15 | 18 | 13 | 20 | 24.5 | 18 |  | 
10 | O=C(CCc1cn(Cc2cn(Cc3ccc(F)cc3)nn2)c2ccccc12)N1CCN(C(=O)c2ccccc2)CC1 | 12 | 10 | 13 | 18 | 15 | 20 | 22.7 | 10 |  | 
11 | O=C(CCc1c[nH]c2ccccc12)N1CCN(C(=O)c2ccc(Cl)cc2)CC1 | 12 | 10 | 10 | 12 | 10 | 20 | 63.1 | 15 |  | 
12 | O=C(CCc1cn(Cc2cn(Cc3ccc(F)cc3)nn2)c2ccccc12)N1CCN(C(=O)c2ccc([N+](=O)[O-])cc2)CC1 | 13 |  | 10 | 20 | 19 | 20 | 21 | 13 | 15 | 
13 | O=C(O)c1cn(C2CC2)c2cc(N3CCNCC3)c(F)cc2c1=O [CIPROFLOXACIN] | 21 | 18 | 18 | 32 | 27 | 26 |  | 21 |  | 15
14 | NNC(=O)c1ccncc1 [ISONIAZID] |  |  |  |  |  |  | 11.7 |  |  | 
15 | NC(=O)c1cnccn1 [PYRAZINAMIDE] |  |  |  |  |  |  | 25.3 |  |  | 
